We go through four compounds from ChEMBL document CHEMBL3259786, “Quinazolines: new horizons in anticonvulsant therapy” (Eur J Med Chem, 2014).

Series [1] in a line: Toxicity in ip dosed mouse. It is filed as organism-based. Conditions: in vivo.
The test system of series [2] is Mus musculus. Put plainly: Anticonvulsant activity in ip dosed mouse by MES test. It is filed as functional.
A short description of series [3]: Acute toxicity in po dosed mouse. It is filed as organism-based. Conditions: in vivo.
The test system of series [4] is Mus musculus. Put plainly: Anticonvulsant activity in po dosed albino mouse measured after 60 mins by MES test. Type of series: functional.
The species named for series [5] is Mus musculus. In words: Anticonvulsant activity in mouse by MES test. It is filed as functional.

The compound `c1ccc(CN(Cc2ccccc2)c2nc(N(Cc3ccccc3)Cc3ccccc3)c3ccccc3n2)cc1` showed a 50% lethal dose (LD50) in series [1] of 400 mg/kg. The compound also had an Activity in the series with Mus musculus [2] of 50%.
In series [3], `O=C(CNc1ccc(Cl)cc1)Nn1c(COc2ccc(Cl)cc2Cl)nc2ccccc2c1=O` returned a median lethal dose (LD50) of more than 3000 mg/kg. The same compound returned a PD50 in the series with Mus musculus [4] of 200.53 µmol/kg.
In series [1], `CCSc1nc(=O)c2ccccc2[nH]1` registered a 50% lethal dose (LD50) of 1000 mg/kg. The compound also came in with an Activity with Mus musculus [2] of 60%.
For `Nc1nnc2c3ccccc3nc(-c3ccccc3Br)n12`, the 50% effect level in the series filed under Mus musculus [5] (ED50) was put at a dose of 27.4 mg/kg.

The LD50 is the dose expected to kill half of the subjects tested. A lower LD50 goes with greater toxicity. A word on the ED50: it is the dose that gives a 50% effect, or the effect in half of the subjects. A low value points to greater potency.
